Assay results as given in paper PMC6273267 (Molecules, 2016).
Read-outs that look alike come from different tables or passages of the source.

How the values were obtained:
AChE (E.C. 3.1.1.7) [1] = biological target: T1, AChE (E.C. 3.1.1.7) (Electrophorus electricus, UniProt O42275); assay: biochemical; details: stated in the introduction, early efforts
T1 construct: purchased Sigma-Aldrich (St. Louis, MO, USA)

AChE (E.C. 3.1.1.7) [2] = biological target: T1, AChE (E.C. 3.1.1.7); assay: biochemical; details: for Selectivity Index: Selectivity Index = IC50 (BuChE)/IC50 (AChE); for IC50: means ± SEM of three experiments, pH 8.0, 37 °C, 15 min incubation, read-out: AChE Inhibition (IC50)
Experimental: (§1) The inhibitory activity of the synthesized graveoline analogs on cholinesterase in vitro was studied using the Ellman method.
(§2) Stock solutions of all graveoline analogs (10 mM) were prepared using DMSO and stored at −80 °C. Further dilutions to working concentrations were made with double-distilled deionized water. AChE (E.C. 3.1.1.7, obtained from electric eel), BuChE (E.C. 3.1.1.8, obtained from equine serum), 5,5′-dithiobis-(2-nitrobenzoic acid) (Ellman’s reagent, DTNB), acetylthiocholine chloride (ATC), butylthiocholine chloride, thioflavin T, and tarcine hydrochloride were purchased from Sigma-Aldrich (St. Louis, MO, USA). Aβ42 was purchased from Millipore (Billerica, MA, USA). 3-(4,5-Dimethylthiazol-2-yl)-2,5-diphenyltetrazolium bromide (MTT) was purchased formal Aladdin (Shanghai, China). The SH-SY5Y cell line was obtained from the Animal experimental center of Sun Yat-sen University.
(§3) The solutions of the enzyme were prepared to achieve 2.0 units/mL in 2 mL aliquots. The experiment system contained phosphate buffer, pH 8.0 (1 mL), 50 μL of 0.01 M substrate (ATC), 50 μL of 0.01 M DTNB, and 10 μL of enzyme. The substrate was added into the experiment system containing the DTNB, buffer, and enzyme with inhibitors after 15 min of incubation. […] Calculations were conducted according to the assay of Ellman et al.. The in vitro BuChE assay was performed using the method described above.

BuChE (E.C. 3.1.1.8) = biological target: T2, BuChE (E.C. 3.1.1.8) (Equus caballus, UniProt P81908); assay: biochemical; details: means ± SEM of three experiments; pH 8.0, 37 °C, 15 min incubation; read-out: BuChE Inhibition (IC50)
T2 construct: purchased Sigma-Aldrich (St. Louis, MO, USA); host or cells: equine serum
T2 sequence (P81908 whole entry): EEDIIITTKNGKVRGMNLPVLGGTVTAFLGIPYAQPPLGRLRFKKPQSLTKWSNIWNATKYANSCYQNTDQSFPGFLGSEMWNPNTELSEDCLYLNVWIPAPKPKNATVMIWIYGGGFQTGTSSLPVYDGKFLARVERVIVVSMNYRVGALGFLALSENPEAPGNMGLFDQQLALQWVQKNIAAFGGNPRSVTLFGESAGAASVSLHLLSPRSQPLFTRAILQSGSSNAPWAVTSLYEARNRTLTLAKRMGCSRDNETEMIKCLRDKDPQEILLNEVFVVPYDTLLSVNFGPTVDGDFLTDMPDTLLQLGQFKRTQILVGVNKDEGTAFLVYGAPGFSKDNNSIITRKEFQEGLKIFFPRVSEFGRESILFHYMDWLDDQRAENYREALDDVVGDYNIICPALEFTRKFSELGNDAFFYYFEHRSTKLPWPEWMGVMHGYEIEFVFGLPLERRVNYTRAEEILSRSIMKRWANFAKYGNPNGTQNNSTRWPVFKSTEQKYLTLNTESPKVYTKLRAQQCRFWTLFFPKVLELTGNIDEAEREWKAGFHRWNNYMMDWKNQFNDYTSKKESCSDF
Experimental: as §1, §2, §3

[3] = tested on: AChE-induced Aβ42 aggregation; assay: Thioflavin T-based fluorometric assay of AChE-induced Aβ42 aggregation; type: biochemical; details: 5, 10, 20, 40 and 80 μM; 48 h at 37 °C; effect related to compound concentration
Experimental: To explore the combining effect of graveoline analogs on the AChE functional site PAS, compound 5c was chosen to study the inhibitory activity of AChE-induced Aβ aggregation using thioflavin T-based fluorometric assay. […] The inhibitory effect of 5c was related to the compound concentration. […]
Figure 4 Determination of 5c inhibition potency on AChE-induced amyloid-β (Aβ)42 aggregation.
The self-mediated Aβ42 aggregation was evaluated through the thioflavin-T fluorescence assay. A mixture of 230 μM Aβ42 peptide, 2.30 μM AChE (Aβ42/AChE molar ratio 100:1), and the indicated concentrations of compound 5c (5, 10, 20 ,40 and 80 μM) were added to the phosphate buffer (pH 7.40, 0.01 M). After co-incubated in 37 °C for 48 h, thioflavin-T (5 μM in 50 mM glycine-NaOH buffer, pH 8.00) was added. Fluorescence was monitored with excitation at 450 nm (λex) and 485 nm (λem) by the Spectrofluorimeter LS55. The fluorescence intensity values reached at the plateau (around 300 s) were recorded after subtracting the background fluorescence. The solutions containing Aβ42, and Aβ42 plus HuAChE was checked as control. Each experiment was run in triplicate.

AChE = biological target: T3, AChE (Electrophorus electricus, UniProt O42275); assay: Kinetic characterization of AChE inhibition (Lineweaver-Burk plot); type: biochemical, electric eel; details: lines intersect in the second quadrant
T3 construct: purchased Sigma-Aldrich (St. Louis, MO, USA)
T3 sequence (O42275 24-633): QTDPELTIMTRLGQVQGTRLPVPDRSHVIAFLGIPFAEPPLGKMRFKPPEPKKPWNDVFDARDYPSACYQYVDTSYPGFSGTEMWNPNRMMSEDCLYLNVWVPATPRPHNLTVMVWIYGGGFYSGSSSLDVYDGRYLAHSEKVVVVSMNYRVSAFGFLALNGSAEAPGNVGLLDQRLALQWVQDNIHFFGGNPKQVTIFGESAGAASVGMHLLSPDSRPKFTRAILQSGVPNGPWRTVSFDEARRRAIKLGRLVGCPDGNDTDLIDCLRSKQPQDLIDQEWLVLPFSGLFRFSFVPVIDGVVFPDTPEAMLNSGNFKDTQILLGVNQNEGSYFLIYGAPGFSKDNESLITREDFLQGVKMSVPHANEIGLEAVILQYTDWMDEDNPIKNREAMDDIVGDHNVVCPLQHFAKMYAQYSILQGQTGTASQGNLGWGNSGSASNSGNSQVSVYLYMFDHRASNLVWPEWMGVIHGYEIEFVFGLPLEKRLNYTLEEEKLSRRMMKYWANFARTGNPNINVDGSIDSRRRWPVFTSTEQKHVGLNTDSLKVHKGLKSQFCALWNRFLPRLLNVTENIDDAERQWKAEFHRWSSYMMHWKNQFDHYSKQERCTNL
Experimental: When the small-molecule ligand was combined with the AChE active center (CAS), the type of inhibition of the enzyme was classified as competitive inhibition; by contrast, when the small-molecule ligand was acted on the PAS, the enzymatic inhibition was classified as non-competitive inhibition. […] This conclusion was verified by subsequent molecular docking experiments.
Figure 2 Lineweaver-Burk plot for the inhibition of AChE by 5c.
The kinetic characterization of AChE was performed using the reported method. Three concentrations ([…]) of the substrate were mixed in 1 mL 0.1 M KH2PO4/K2HPO4 buffer (pH 8.0) containing 10 μL AChE, 50 μL DTNB, and 50 μL substrate. The test compound was added into the assay solution and was pre-incubated with the AChE at 37 °C for 15 min followed by addition of the substrate. The kinetic characterization of the AChE-catalyzed ATC hydrolysis was performed spectrometrically at 412 nm. A parallel control with no inhibitor in the mixture allowed adjusting activities to be measured at various times.

SH-SY5Y cells = assay: Neurocyte toxicity test in vitro (MTT method); type: cell-based; details: 40 μM, 48 h
Experimental: Thus, we used the methyl thiazolyl tetrazolium (MTT) method to perform a neurocyte (SH-SY5Y) toxicity test in vitro. […] However, cell viability was greatly influenced at 20 and 40 μM concentrations and the inhibition rates were more than 90%. […] However, compared with the cholinesterase activity at the nanomole level, this level of cytotoxicity is acceptable. […]
Figure 5 Inhibition for SH-SY5Y of compounds 4a–4c, 5a–5c, 6a–6b and curcumin at different concentrations.
The SH-SY5Y cell line was seeded on 96-well plates at a density of 1.0 × 10^4 cells/well. After overnight incubation, the cells were treated with various concentrations (0.1, 1, 20, and 40 μM) of graveoline derivatives for 48 h. Subsequently, 10 μL of 5 mg/mL MTT solution was added to each well and further incubated for 4 h at 37 °C. The solution was carefully removed, and each well was treated with dimethyl sulfoxide (DMSO) (200 μL for each well). The optical density of the wells was then read on the microplate reader at 490 nm. The parallel tests of all drug doses were performed in triplicate.

T1 sequence (O42275 24-633): as above

SMILES	IC50 (AChE (E.C. 3.1.1.7) [1]) [nM]	Selectivity Index (AChE (E.C. 3.1.1.7) [2])	IC50 (AChE (E.C. 3.1.1.7) [2]) [nM]	IC50 (BuChE (E.C. 3.1.1.8)) [nM]	inhibition of AChE-induced Aβ42 aggregation [3]	type of inhibition of AChE (AChE)	neurocyte inhibition rate (SH-SY5Y cells) [%]
Cc1ccc(-c2cc(=O)c3ccccc3n2C)cc1 [Compound 2, 1-Methyl-2-p-tolylquinolin-4(1H)-one]	3650	3	3650 ± 38	9306 ± 76	–	–	–
CN(C)CCNCc1ccc(-c2cc(=O)c3ccccc3n2C)cc1 [Compound 4a, 2-(4-((2-(Dimethylamino)ethylamino)methyl)phenyl)-1-methylquinolin-4(1H)-one]	–	45	78.5 ± 1.76	3520 ± 46	–	–	–
Cn1c(-c2ccc(CNCCN3CCCC3)cc2)cc(=O)c2ccccc21 [Compound 4b, 1-Methyl-2-(4-((2-(pyrrolidin-1-yl)ethylamino)methyl)phenyl)quinolin-4(1H)-one]	–	–	10.2 ± 1.33	2470 ± 85	–	–	–
Cn1c(-c2ccc(CNCCN3CCCCC3)cc2)cc(=O)c2ccccc21 [Compound 4c, 1-Methyl-2-(4-((2-(piperidin-1-yl)ethylamino)methyl)phenyl)quinolin-4(1H)-one]	–	160	9.63 ± 0.76	1540 ± 29	–	–	–
CN(C)CCCNCc1ccc(-c2cc(=O)c3ccccc3n2C)cc1 [Compound 5a, 2-(4-((3-(Dimethylamino)propylamino)methyl)phenyl)-1-methylquinolin-4(1H)-one]	–	80	33.4 ± 0.78	2680 ± 32	–	–	–
Cn1c(-c2ccc(CNCCCN3CCCC3)cc2)cc(=O)c2ccccc21 [Compound 5b, 1-Methyl-2-(4-((3-(pyrrolidin-1-yl)propylamino)methyl)phenyl)quinolin-4(1H)-one]	–	291	6.47 ± 0.15	1890 ± 54	–	–	–
Cn1c(-c2ccc(CNCCCN3CCCCC3)cc2)cc(=O)c2ccccc21 [Compound 5c, 1-Methyl-2-(4-((3-(piperidin-1-yl)propylamino)methyl)phenyl)quinolin-4(1H)-one]	–	486	2.36 ± 0.24	1150 ± 31	significantly inhibit	mixed inhibition	–
CN(C)CCCCNCc1ccc(-c2cc(=O)c3ccccc3n2C)cc1 [Compound 6a, 2-(4-((4-(Dimethylamino)butylamino)methyl)phenyl)-1-methylquinolin-4(1H)-one]	–	103	35.5 ± 0.96	3670 ± 39	–	–	–
Cn1c(-c2ccc(CNCCCCN3CCCC3)cc2)cc(=O)c2ccccc21 [Compound 6b, 1-Methyl-2-(4-((4-(pyrrolidin-1-yl)butylamino)methyl)phenyl)quinolin-4(1H)-one]	–	193	12.6 ± 0.57	2430 ± 49	–	–	–
COc1cc(/C=C/C(=O)CC(=O)/C=C/c2ccc(O)c(OC)c2)ccc1O [curcumin]	–	–	–	–	–	–	57.3
